# According to paper PMC6691788, “Design and synthesis of phthalazine-based compounds as potent anticancer agents with potential antiangiogenic activity via VEGFR-2 inhibition” (Journal of Enzyme Inhibition and Medicinal Chemistry, 2019):
# Legend:
# [1] = system: HL-60(TB); test: NCI 60 cell panel SRB screen; format: cell-based; settings: Homo sapiens, single dose 10 μM, read-out: percent cell growth promotion
# [2] = system: NCI-H322M; test: NCI 60 cell panel SRB screen; format: cell-based; settings: Homo sapiens, single dose 10 μM, read-out: percent cell growth promotion
# [3] = biological target: T1, VEGFR-2 tyrosine kinase (Homo sapiens, UniProt P35968); test: In vitro VEGFR-2 tyrosine kinase assay (BPS Bioscience); format: biochemical; settings: read-out: VEGFR-2 % inhibition; 10 μM concentration
# T1 construct: purchased BPS Bioscience 40301
# T1 sequence (P35968 20-1356): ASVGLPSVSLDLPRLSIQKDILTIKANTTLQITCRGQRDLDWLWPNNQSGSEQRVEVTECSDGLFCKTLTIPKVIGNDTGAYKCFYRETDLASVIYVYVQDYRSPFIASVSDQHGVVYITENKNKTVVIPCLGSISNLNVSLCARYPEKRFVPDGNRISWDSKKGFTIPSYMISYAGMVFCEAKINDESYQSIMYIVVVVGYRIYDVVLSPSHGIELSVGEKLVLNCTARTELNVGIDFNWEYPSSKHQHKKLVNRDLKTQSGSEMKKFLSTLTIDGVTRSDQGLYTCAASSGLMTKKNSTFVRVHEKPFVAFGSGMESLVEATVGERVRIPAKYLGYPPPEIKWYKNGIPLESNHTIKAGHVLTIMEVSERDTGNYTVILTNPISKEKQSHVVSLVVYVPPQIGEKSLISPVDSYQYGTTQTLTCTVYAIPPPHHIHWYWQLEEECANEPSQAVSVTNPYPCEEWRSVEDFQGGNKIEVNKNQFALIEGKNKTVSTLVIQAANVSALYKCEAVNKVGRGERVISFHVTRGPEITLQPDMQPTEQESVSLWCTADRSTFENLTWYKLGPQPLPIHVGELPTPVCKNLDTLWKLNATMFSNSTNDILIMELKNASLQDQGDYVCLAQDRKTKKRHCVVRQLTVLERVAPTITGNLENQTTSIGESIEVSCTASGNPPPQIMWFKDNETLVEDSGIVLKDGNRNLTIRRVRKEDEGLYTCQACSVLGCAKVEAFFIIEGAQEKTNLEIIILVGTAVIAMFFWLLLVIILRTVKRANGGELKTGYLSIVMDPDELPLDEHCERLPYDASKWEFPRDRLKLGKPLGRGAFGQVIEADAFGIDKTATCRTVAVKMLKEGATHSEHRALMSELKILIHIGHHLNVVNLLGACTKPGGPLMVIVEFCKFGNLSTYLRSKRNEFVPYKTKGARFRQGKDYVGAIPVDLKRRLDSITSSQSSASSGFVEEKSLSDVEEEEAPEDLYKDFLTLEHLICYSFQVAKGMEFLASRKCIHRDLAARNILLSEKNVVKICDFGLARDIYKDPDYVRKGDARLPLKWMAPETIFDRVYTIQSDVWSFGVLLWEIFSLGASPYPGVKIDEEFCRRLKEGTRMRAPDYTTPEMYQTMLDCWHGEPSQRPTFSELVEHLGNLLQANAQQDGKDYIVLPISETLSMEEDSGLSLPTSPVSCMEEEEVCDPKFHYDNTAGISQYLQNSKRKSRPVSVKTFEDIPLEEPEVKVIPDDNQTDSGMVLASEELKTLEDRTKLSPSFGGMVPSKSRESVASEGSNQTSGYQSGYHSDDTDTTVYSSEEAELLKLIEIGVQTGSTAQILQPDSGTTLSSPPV
# How it was run: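 For IC50, ADP formation after a 30-min 30 °C reaction was detected by ADP-Glo luminescence in duplicate, blank-subtracted and fitted as log inhibitor versus normalised response. The 10 µM single-dose test instead measured remaining ATP (Kinase-Glo Plus) after 40 min at 30 °C with poly(Glu,Tyr) substrate, 10 μM ATP, pH 7.4, 1% DMSO.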
# [4] = system: RPMI-8226; test: NCI 60 cell panel SRB screen; format: cell-based; settings: Homo sapiens; RPMI-8226, single dose 10 μM; read-out: percent cell growth promotion
# [5] = system: T-47D; test: NCI 60 cell panel SRB screen; format: cell-based; settings: Homo sapiens, T47D, read-out: percent cell growth promotion
# [6] = system: KM12; test: NCI 60 cell panel SRB screen; format: cell-based; settings: Homo sapiens; KM12, single dose 10 μM; read-out: percent cell growth promotion
# [7] = system: RXF 393; test: NCI 60 cell panel SRB screen; format: cell-based; settings: Homo sapiens; RXF 393, single dose 10 μM; read-out: percent cell growth promotion
# [8] = system: SK-MEL-5; test: NCI 60 cell panel SRB screen; format: cell-based; settings: Homo sapiens, SK-MEL-5, read-out: percent cell growth promotion
# [9] = system: CCRF-CEM; test: NCI 60 cell panel SRB screen; format: cell-based, human; settings: Homo sapiens, single dose 10 μM, read-out: percent cell growth promotion
# [10] = system: TK-10; test: NCI 60 cell panel SRB screen; format: cell-based, human; settings: Homo sapiens; TK-10, single dose 10 μM; read-out: percent cell growth promotion
# [11] = system: HT29; test: NCI 60 cell panel SRB screen; format: cell-based; settings: Homo sapiens, HT-29; HT29, single dose 10 μM; read-out: percent cell growth promotion
# [12] = system: NCI-H226; test: NCI 60 cell panel SRB screen; format: cell-based; settings: Homo sapiens; NCI-H226, single dose 10 μM; read-out: percent cell growth promotion
# [13] = system: PC-3; test: NCI 60 cell panel SRB screen; format: cell-based; settings: Homo sapiens; PC-3, single dose 10 μM; read-out: percent cell growth promotion
# [14] = system: LOX IMVI; test: NCI 60 cell panel SRB screen; format: cell-based; settings: Homo sapiens, read-out: percent cell growth promotion
# [15] = system: OVCAR-3; test: NCI 60 cell panel SRB screen; format: cell-based; settings: Homo sapiens; OVCAR-3, single dose 10 μM; read-out: percent cell growth promotion
# [16] = system: HCC-2998; test: NCI 60 cell panel SRB screen; format: cell-based; settings: Homo sapiens; HCC-2998, single dose 10 μM; read-out: percent cell growth promotion
# [17] = system: NCI-H460; test: NCI 60 cell panel SRB screen; format: cell-based; settings: Homo sapiens; NCI-H460, single dose 10 μM; read-out: percent cell growth promotion
# [18] = system: OVCAR-8; test: NCI 60 cell panel SRB screen; format: cell-based; settings: Homo sapiens; OVCAR-8, single dose 10 μM; read-out: percent cell growth promotion
# [19] = system: SNB-19; test: NCI 60 cell panel SRB screen; format: cell-based; settings: Homo sapiens; SNB-19, single dose 10 μM; read-out: percent cell growth promotion
# [20] = system: SR; test: NCI 60 cell panel SRB screen; format: cell-based; settings: Homo sapiens, single dose 10 μM, read-out: percent cell growth promotion
smiles,measurement,setting,value
"c1ccc(N2CCN(c3nncc4ccccc34)CC2)nc1 [Compound 8d, 1–(4-(Pyridin-2-yl)piperazin-1-yl)phthalazine]",activity at 10 µM,[1],96.6%
same,activity at 10 µM,[2],114%
same,inhibition at 10 µM,[3],5%
same,activity at 10 µM,[4],107%
same,activity at 10 µM,[5],101%
same,activity at 10 µM,[6],104%
same,activity at 10 µM,[7],108%
same,activity at 10 µM,[8],97.5%
same,activity at 10 µM,[9],102%
same,activity at 10 µM,[10],105%
same,activity at 10 µM,[11],98.2%
same,activity at 10 µM,[12],98.1%
same,activity at 10 µM,[13],101%
same,activity at 10 µM,[14],97.5%
same,activity at 10 µM,[15],99.9%
same,activity at 10 µM,[16],117%
same,activity at 10 µM,[17],108%
same,activity at 10 µM,[18],97.8%
same,activity at 10 µM,[19],113%
same,activity at 10 µM,[20],103%
"CCOC(=O)N1CCN(c2nnc(C)c3ccccc23)CC1 [Compound 8f, Ethyl 4–(4-methylphthalazin-1-yl)piperazine-1-carboxylate]",activity at 10 µM,[1],114%
same,activity at 10 µM,[2],101%
same,inhibition at 10 µM,[3],14%
same,activity at 10 µM,[4],96.9%
same,activity at 10 µM,[5],87.2%
same,activity at 10 µM,[6],107%
same,activity at 10 µM,[7],108%
same,activity at 10 µM,[8],97.5%
same,activity at 10 µM,[9],103%
same,activity at 10 µM,[10],90.6%
same,activity at 10 µM,[11],96%
same,activity at 10 µM,[12],103%
same,activity at 10 µM,[13],101%
same,activity at 10 µM,[14],106%
same,activity at 10 µM,[15],112%
same,activity at 10 µM,[16],99.8%
same,activity at 10 µM,[17],104%
same,activity at 10 µM,[18],102%
same,activity at 10 µM,[19],107%
same,activity at 10 µM,[20],101%
"Cc1nnc(N2CCN(c3ccccc3)CC2)c2ccccc12 [Compound 8g, 1-Methyl-4–(4-phenylpiperazin-1-yl)phthalazine]",activity at 10 µM,[1],103%
same,activity at 10 µM,[2],112%
same,inhibition at 10 µM,[3],13%
same,activity at 10 µM,[4],104%
same,activity at 10 µM,[5],90.5%
same,activity at 10 µM,[6],109%
same,activity at 10 µM,[7],105%
same,activity at 10 µM,[8],98.1%
same,activity at 10 µM,[9],103%
same,activity at 10 µM,[10],97.2%
same,activity at 10 µM,[11],98.3%
same,activity at 10 µM,[12],95.2%
same,activity at 10 µM,[13],99.4%
same,activity at 10 µM,[14],103%
same,activity at 10 µM,[15],108%
same,activity at 10 µM,[16],109%
same,activity at 10 µM,[17],105%
same,activity at 10 µM,[18],97.1%
same,activity at 10 µM,[19],105%
same,activity at 10 µM,[20],107%
